Literature values as cited in US7560455B2, “3-Amino-4-phenylbutanoic acid derivatives as dipeptidyl peptidase inhibitors for the treatment or prevention of diabetes” (Merck & Co., Inc., priority 2003, dated 2009).

Columns and labels:
cardiac allograft = conditions: rats; doubled from day 7 to day 14
hematopoiesis = conditions: mouse, cyclophosphamide-induced neutropenia
DP-IV = biological target: T1, DP-IV (Homo sapiens, UniProt P27487)
T1 construct: GRF is rapidly degraded in plasma to GRF[3-44]
T1 sequence (P27487 whole entry): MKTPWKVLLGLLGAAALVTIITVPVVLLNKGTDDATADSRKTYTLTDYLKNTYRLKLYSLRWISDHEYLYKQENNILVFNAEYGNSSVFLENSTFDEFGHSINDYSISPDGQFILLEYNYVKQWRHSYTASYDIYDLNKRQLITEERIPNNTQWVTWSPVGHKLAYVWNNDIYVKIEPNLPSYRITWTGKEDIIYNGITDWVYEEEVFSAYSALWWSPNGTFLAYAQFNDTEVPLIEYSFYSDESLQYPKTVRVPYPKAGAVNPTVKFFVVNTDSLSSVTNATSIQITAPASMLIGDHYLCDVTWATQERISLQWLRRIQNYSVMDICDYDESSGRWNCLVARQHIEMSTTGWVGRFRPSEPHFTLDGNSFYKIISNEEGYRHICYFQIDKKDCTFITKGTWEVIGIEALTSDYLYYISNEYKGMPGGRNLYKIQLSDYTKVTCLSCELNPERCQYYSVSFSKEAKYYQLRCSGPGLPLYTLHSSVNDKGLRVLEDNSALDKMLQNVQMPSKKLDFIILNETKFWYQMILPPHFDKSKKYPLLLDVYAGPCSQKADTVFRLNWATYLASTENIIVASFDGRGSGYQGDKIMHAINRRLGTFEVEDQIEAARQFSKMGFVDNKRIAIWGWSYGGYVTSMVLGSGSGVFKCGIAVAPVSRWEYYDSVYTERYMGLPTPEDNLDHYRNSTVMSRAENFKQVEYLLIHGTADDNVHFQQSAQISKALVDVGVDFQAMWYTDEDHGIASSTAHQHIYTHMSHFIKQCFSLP

For `CC(C)N1CCC(c2ccccc2)(c2ccccc2)CC1` [Prodipine, Pro-Pro-diphenyl-phosphonate], the cardiac allograft survival (cardiac allograft) is listed as 14 day.

In the case of `CC(C)[C@H](N)C(=O)N1CCC[C@H]1B(O)O` [Val-Boro-Pro], the effect on hematopoiesis (hematopoiesis) is listed as “stimulated hematopoiesis”.

In the case of diprotin A, the “effect on degradation of GRF in plasma to GRF[3-44]” value (DP-IV) is listed as “prevented”.
